Structures are written as SMILES. pIC50, pKi: −log10 of the molar value. Read-outs that look alike come from different tables or passages of the source.

The record followed here is patent publication US20120190707A1, “SELECTIVE INHIBITORS OF AKT AND METHODS OF USING SAME” (priority 2008, published 2012).

In test [1] the target is T1, Akt1 (Homo sapiens, UniProt P31749). Nature of the test: Akt1 inhibition, Z'-LYTE kit fluorescent-enzymatic assay. Format: biochemical. How it is done:
Here the top 4000 compounds out of 50000 docked compounds were selected using FlexX and Drugscore (BioSolvIT). The top 4000 docked structures were further evaluated and ranked according to Goldscore and Chemscore functions (CSCORE). A list of common 200 compounds was then selected among ranked top 700 compounds according to both scoring functions (FIG. 1B). […] The remaining 100 compounds were experimentally tested up to 30 μM against Akt1. The inhibitory activity was evaluated for the selected compounds by using Z'-LYTE™ kit assay provided by Invitrogen Corporation (19). […] Corning® 384-well low volume plates (20 μl) were used. The fluorescent-enzymatic assay has been performed following the protocol provided by Invitrogen Corporation, using a fluorescent plate reader (Victor2, Perkin-Elmer). […] C) Lineweaver-Burk Km and Km(app) evaluation for Akt1. Each measurement was performed in triplicate. […] The Ki and the Km(app) were calculated at fixed inhibitor concentrations, as reported in the text. All constant values were definitely evaluated by fitting the data to the Lineweaver-Burk plot; D) Akt1 inhibition assay using GSK-3 as a substrate. Comparison of compounds 1 and 2 (Table 1) with H89 at 10 μM. E) Dose response for compound 1. Akt (10 ng of recombinant enzyme) in 25 μl 1× kinase buffer (25 mM Tris, pH 7.5; 5 mM n-glycerol phosphate; 2 mM dithiothreitol; 0.1 mM Na3VO4; and 10 mM MgCl2), was mixed with 2.5 μl DMSO (1% stock) or MPA-D (100 μM in 1% DMSO). Samples were incubated on ice for 1.5 hours at which time 1 μg of GSK-3 fusion protein (Cell Signaling), which served as the substrate, was added followed by ATP (200 μM) to each reaction mixture. After the suspensions were incubated at 30° C. for 20 min, the reaction was terminated by the addition of 3×SDS sample buffer (187.5 mM Tris-HCl, pH 6.8; 6% SDS; 30% glycerol; 150 mM dithiothreitol; and 0.03% bromophenol blue). The samples were boiled for 5 min, and the proteins were separated on a 12% SDS polyacrylamide gel and subsequently transferred to a nitrocellulose membrane. Membranes were incubated with rabbit polyclonal anti-phospho-GSK-3α/β (Ser21/9) (Cell Signaling).
For these purposes, we initially determined the Km and the Vmax of the enzymatic reaction involving the peptide provided by the Z'-LYTE™ kit assay and Akt1 by varying the concentration of ATP. The above parameters appeared to be 7.9 μM and 0.0205 μmol min^−1 mg^−1, respectively. […] Because all our inhibitors affected the Km rather than the Vmax of the reaction (FIG. 2C), they can be truly considered ATP-competitive inhibitors of Akt1.

The target in test [2] is T1, Akt1. Briefly: Akt1 inhibition assay using GSK-3 as a substrate (immuno-blotting with anti-phospho-GSK-3α/β). It is filed as biochemical. How it is done:
Here the top 4000 compounds out of 50000 docked compounds were selected using FlexX and Drugscore (BioSolvIT). The top 4000 docked structures were further evaluated and ranked according to Goldscore and Chemscore functions (CSCORE). A list of common 200 compounds was then selected among ranked top 700 compounds according to both scoring functions (FIG. 1B). […] The remaining 100 compounds were experimentally tested up to 30 μM against Akt1. The inhibitory activity was evaluated for the selected compounds by using Z'-LYTE™ kit assay provided by Invitrogen Corporation (19). […] Corning® 384-well low volume plates (20 μl) were used. The fluorescent-enzymatic assay has been performed following the protocol provided by Invitrogen Corporation, using a fluorescent plate reader (Victor2, Perkin-Elmer). […] C) Lineweaver-Burk Km and Km(app) evaluation for Akt1. Each measurement was performed in triplicate. […] The Ki and the Km(app) were calculated at fixed inhibitor concentrations, as reported in the text. All constant values were definitely evaluated by fitting the data to the Lineweaver-Burk plot; D) Akt1 inhibition assay using GSK-3 as a substrate. Comparison of compounds 1 and 2 (Table 1) with H89 at 10 μM. E) Dose response for compound 1. […]

The test system of the next test is JNK. Nature of the test: Activity of other protein kinases: JNK. Format: biochemical. As to conditions: 100 micro.M. The text has this:
We recently reported on the direct evaluation of a number of in silico approaches to identify AKT inhibitors (Forino et al., 2005) We achieved experimental validation of selected compounds using both a fluorescence-based enzymatic assay and a substrate phosphorylation assay involving the protein GSK-3 (Forino et al., 2005). Briefly, the virtual docking approach consists of selecting the top 4,000 out of 50,000 docked compounds, using a variety of computational docking approaches, including a consensus score among two different scoring functions (Forino et al., 2005). Of those, 100 compounds were selected based on ranking and favorable docking geometry.

Another test concerns PRAS40. Briefly: IGF-1 induced PRAS40 phosphorylation by western analysis in 29-1 cells. As to conditions: IGF-1 (20 ng/mL), 10.micro.M. It is filed as cell-based, human. As for the experimental part:
FIG. 6 describes the effect of BI-69A11 on phosphorylation and total levels of AKT in UACC 903 (PTEN−) cells. (A) UACC903 and the modified clone 29-1 (PTEN+) cells were exposed to 10 micro.M BI-69A11 and 50 micro.M LY294002 (a PI3K inhibitor) and the levels of pAKT473 and total AKT determined by western analysis. […] (SF=Serum Free). (B) BI-69A11 inhibits PRAS40 phosphorylation. UACC903 melanoma cells or 29-1 cells (PTEN+) were subjected to treatment with IGF-1 (20 ng/mL) and the level of PRAS40 phosphorylation was assessed. […] The cells were collected, lysed and levels of pPRAS40 and total PRAS40 determined by western analysis. (C) AKT association with HSP90 is inhibited by BI-69A11. Human melanoma cells were treated with BI-69A11 (10.micro.M) or DMSO control for 4 h, followed by protein preparation and immunoprecipitation using antibodies to pan-AKT. MG132 treatment, when used, initiated 1 h prior to treatment and lasted up to the preparation of proteins (total of 5 h). The right panel depicts analysis of total lysates.
We next tested the effect of BI-69A11 in 29-1 cells which are derivative of UAC903 that were reconstituted with chromosome 10 carrying the wt PTEN. Thus, 29-1 cells no longer express a constitutively active form of AKT (Robertson et al., 1998). To activate AKT, 29-1 cells were treated with IGF-1 (FIG. 6B). […]

T1 sequence (P31749 whole entry): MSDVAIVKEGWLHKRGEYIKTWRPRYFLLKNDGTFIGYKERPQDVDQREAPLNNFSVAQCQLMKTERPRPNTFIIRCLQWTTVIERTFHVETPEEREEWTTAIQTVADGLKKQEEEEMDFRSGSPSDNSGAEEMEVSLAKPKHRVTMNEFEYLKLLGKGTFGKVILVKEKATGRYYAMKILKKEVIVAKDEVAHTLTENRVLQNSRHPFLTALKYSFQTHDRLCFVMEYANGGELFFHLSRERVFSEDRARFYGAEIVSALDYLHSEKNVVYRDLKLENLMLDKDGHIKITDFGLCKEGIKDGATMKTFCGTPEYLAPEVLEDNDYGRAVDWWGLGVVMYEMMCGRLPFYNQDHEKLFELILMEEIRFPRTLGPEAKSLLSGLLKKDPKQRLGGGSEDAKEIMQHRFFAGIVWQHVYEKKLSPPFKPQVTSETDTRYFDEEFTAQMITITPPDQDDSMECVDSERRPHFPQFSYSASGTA

Turning to `O=C(/C=C/c1nc2ccccc2[nH]1)c1c(O)nc2ccc(Cl)cc2c1-c1ccccc1` [Compound 2, (E)-3-(3-(1H-benzo[d]imidazol-2-yl)acryloyl)-6-chloro-4-phenylquinolin-2(1H)-one], the “IC50 values (in words)” value at Akt1 [1] is listed as “low-micromolar range”. Also, the pKi at Akt1 [1] (10 μM compound 1, 20 μM compound 2, 50 μM compound 3, increasing ATP, Lineweaver-Burk) is 5.41. Also, the pIC50 is 5.64 on Akt1 [1] (AKT1, Example 2 (Forino et al., 2005), read-out: IC50 values) and 5.35 on Akt1 [1] (FIG. 2 legend, read-out: IC50 value). Also, on Akt1 [1] (affected Km rather than Vmax), the “type of inhibition of Akt1” value is reported as “ATP competitive inhibition”. Also, the “inhibition of GSK-3 phosphorylation” value against Akt1 [2] is “low micromolar range”. Further, the “effect on JNK activity” value in the test with JNK was “did not affect”. The “phosphorylation of PRAS40” value in the test with PRAS40 is “effectively inhibited”.

Usually pKi stands for the Ki on a negative log10 scale, so that one unit is a factor of ten. Lower therefore signals a large Ki. For orientation: pIC50 means the negative decadic logarithm of the IC50, by convention in mol/L.
